Data from patent publication US20080287653A1, “METHOD FOR PRODUCING INHIBITORS AND INHIBITORS FORMED THEREFROM” (THE UNIVERSITY OF AKRON, priority 2007, published 2008).
Marks after values point to notes of the source that are not given here. Values belong to the molecule of their own block, whether it stands above or below them. Non-standard residues stand in square brackets, D forms with d. Residues, ends and D or L forms follow the SMILES beside them. Lys(Thioacetyl) = CC(=S)NCCCC[C@H](N)C(=O)O

Experiments:
SIRT1 = molecular target: T1, SIRT1 (Homo sapiens, UniProt Q96EB6); assay: HPLC-based SIRT1 inhibition assay with purified GST-SIRT1; type: biochemical
T1 construct: made in house
T1 sequence (Q96EB6 1-747): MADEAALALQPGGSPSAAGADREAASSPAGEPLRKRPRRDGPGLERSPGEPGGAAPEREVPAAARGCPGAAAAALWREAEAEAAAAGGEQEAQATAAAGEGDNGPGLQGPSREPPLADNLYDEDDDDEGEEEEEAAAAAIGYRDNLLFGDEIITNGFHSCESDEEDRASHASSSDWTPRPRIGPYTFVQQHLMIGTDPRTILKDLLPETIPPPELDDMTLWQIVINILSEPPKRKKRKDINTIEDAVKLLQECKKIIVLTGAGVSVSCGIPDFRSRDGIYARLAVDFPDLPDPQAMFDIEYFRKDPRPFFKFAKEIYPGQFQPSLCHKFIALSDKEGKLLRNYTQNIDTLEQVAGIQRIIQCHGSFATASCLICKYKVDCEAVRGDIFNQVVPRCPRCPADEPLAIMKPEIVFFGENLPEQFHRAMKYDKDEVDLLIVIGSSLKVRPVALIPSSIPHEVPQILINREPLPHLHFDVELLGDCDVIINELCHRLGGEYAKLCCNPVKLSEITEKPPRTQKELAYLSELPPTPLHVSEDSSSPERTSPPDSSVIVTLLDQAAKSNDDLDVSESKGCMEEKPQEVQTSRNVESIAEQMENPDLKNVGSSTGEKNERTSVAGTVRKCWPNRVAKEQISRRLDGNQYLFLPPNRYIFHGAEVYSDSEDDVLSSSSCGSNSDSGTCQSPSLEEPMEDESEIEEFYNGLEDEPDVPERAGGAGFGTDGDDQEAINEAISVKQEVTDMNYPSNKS
Procedure: Inhibition assays with purified SIRT1, SIRT2, and SIRT3. GST-SIRT1 that could be produced in a laboratory was used for the SIRT1 inhibition assay. SIRT2 and SIRT3 are obtainable from commercial sources known to those skilled in the art. Consistent HPLC-based assay procedures were used for the inhibition assays with SIRT1, SIRT2, and SIRT3. […] An enzymatic reaction was initiated by the addition of an enzyme at 37° C. and was allowed to be incubated at 37° C.: 10 minutes as follows: for SIRT1 assay, or 60 minutes for SIRT2 and SIRT3 assays. Incubation was quenched at the indicated time with the following stop solution: 100 mM HCl and 0.16 M acetic acid. […] All peptide stock solutions were prepared in ddH2O. IC50 values were estimated from Dixon plots (1/v0 vs. [inhibitor]) as an indication of the inhibition potency.

SIRT3 = molecular target: T2, SIRT3 (Homo sapiens, UniProt Q9NTG7); assay: HPLC-based SIRT3 inhibition assay with purified SIRT3; type: biochemical; conditions: SIRT3 vs SIRT1
T2 construct: purchased
T2 sequence (Q9NTG7 1-399): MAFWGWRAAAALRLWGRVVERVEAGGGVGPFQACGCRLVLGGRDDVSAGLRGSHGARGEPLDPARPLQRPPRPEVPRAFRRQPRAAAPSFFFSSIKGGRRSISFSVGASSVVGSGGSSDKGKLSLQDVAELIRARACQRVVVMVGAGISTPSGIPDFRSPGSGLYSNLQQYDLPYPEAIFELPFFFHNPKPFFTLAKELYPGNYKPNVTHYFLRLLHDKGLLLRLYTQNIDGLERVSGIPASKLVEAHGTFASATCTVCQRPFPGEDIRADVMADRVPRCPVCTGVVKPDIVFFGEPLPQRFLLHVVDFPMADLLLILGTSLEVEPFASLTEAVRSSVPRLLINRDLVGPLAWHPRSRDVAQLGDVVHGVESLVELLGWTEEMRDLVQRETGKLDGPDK
Procedure: (§1) Inhibition assays with purified SIRT1, SIRT2, and SIRT3. GST-SIRT1 that could be produced in a laboratory was used for the SIRT1 inhibition assay. SIRT2 and SIRT3 are obtainable from commercial sources known to those skilled in the art. Consistent HPLC-based assay procedures were used for the inhibition assays with SIRT1, SIRT2, and SIRT3. In brief, an inhibition assay solution had the following components: 25 mM (or 50 mM for SIRT2 assay) Tris.HCl (pH 8.0) 137 mM NaCl, 2.7 mM KCl, 1 mM MgCl2, 1 mg/mL BSA (SIGMA Cat. #A3803 with reduced fatty acid content, for SIRT2 assay only), 0.5 mM β-NAD^+, 0.3 mM peptide substrate (peptide 1b for SIRT1 and SIRT2 assays; peptide 3b for SIRT3 assay), an inhibitor (peptide 1a, 2, or 3a) with varied concentrations including 0, and an enzyme (GST-SIRT1, 0.15 μM; SIRT2, 0.3 μM; or SIRT3, 2.0 μM). […] An enzymatic reaction was initiated by the addition of an enzyme at 37° C. and was allowed to be incubated at 37° C.: 10 minutes as follows: for SIRT1 assay, or 60 minutes for SIRT2 and SIRT3 assays. […] The enzymatic deacetylation products (peptide 1c in SIRT1 and SIRT2 assays; peptide 3c in SIRT3 assay) were confirmed by their comigration with the chemically synthesized authentic samples and by MALDI-TOF mass spectrometric analysis, and were quantified by HPLC peak integration and comparison with those of synthetic authentic samples. […]

SIRT1, SIRT2, and SIRT3 = assay: Dethioacetylation of inhibitor peptides under the sirtuin inhibition assay conditions; type: biochemical, human; conditions: same assay conditions as SIRT1/SIRT2/SIRT3 inhibition assays
Procedure: Inhibition assays with purified SIRT1, SIRT2, and SIRT3. GST-SIRT1 that could be produced in a laboratory was used for the SIRT1 inhibition assay. SIRT2 and SIRT3 are obtainable from commercial sources known to those skilled in the art. Consistent HPLC-based assay procedures were used for the inhibition assays with SIRT1, SIRT2, and SIRT3. In brief, an inhibition assay solution had the following components: 25 mM (or 50 mM for SIRT2 assay) Tris.HCl (pH 8.0) 137 mM NaCl, 2.7 mM KCl, 1 mM MgCl2, 1 mg/mL BSA (SIGMA Cat. #A3803 with reduced fatty acid content, for SIRT2 assay only), 0.5 mM β-NAD^+, 0.3 mM peptide substrate (peptide 1b for SIRT1 and SIRT2 assays; peptide 3b for SIRT3 assay), an inhibitor (peptide 1a, 2, or 3a) with varied concentrations including 0, and an enzyme (GST-SIRT1, 0.15 μM; SIRT2, 0.3 μM; or SIRT3, 2.0 μM). […] An enzymatic reaction was initiated by the addition of an enzyme at 37° C. and was allowed to be incubated at 37° C.: 10 minutes as follows: for SIRT1 assay, or 60 minutes for SIRT2 and SIRT3 assays. Incubation was quenched at the indicated time with the following stop solution: 100 mM HCl and 0.16 M acetic acid. The conversion of the limiting substrate to the product was maintained at ≦12%. The quenched assay solutions were directly injected into a reversed-phase HPLC C18 column (100 Å, 0.46×25 cm), eluting with the following gradients of ddH2O containing 0.05% (v/v) trifluoroacetic acid (mobile phase A) and acetonitrile containing 0.05% (v/v) trifluoroacetic acid (mobile phase B): linear increase from 0% B to 35% B (for SIRT1 assay) or 40% B (for SIRT2 and SIRT3 assays) from 0-40 minutes (1 mL/min), and UV monitoring at 214 nm. The enzymatic deacetylation products (peptide 1c in SIRT1 and SIRT2 assays; peptide 3c in SIRT3 assay) were confirmed by their comigration with the chemically synthesized authentic samples and by MALDI-TOF mass spectrometric analysis, and were quantified by HPLC peak integration and comparison with those of synthetic authentic samples. […] All peptide stock solutions were prepared in ddH2O. […]

HDAC8 [1] = molecular target: T3, HDAC8 (Homo sapiens, UniProt Q9BY41); conditions: inventors' earlier work, Fatkins et al.; cited from earlier work
T3 construct: purchased
T3 sequence (Q9BY41 1-377): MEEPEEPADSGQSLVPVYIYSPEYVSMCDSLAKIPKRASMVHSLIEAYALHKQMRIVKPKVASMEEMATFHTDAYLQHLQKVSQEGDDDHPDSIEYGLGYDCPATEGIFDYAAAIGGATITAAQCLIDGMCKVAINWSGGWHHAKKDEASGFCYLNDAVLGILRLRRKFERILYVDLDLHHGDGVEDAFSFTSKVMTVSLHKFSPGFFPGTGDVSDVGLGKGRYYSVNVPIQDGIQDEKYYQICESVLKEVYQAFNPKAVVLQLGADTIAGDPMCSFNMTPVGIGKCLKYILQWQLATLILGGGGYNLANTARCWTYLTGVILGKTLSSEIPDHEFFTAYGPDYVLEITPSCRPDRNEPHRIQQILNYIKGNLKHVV

HDAC8 [2] = molecular target: T3, HDAC8; assay: HPLC-based assay with purified HDAC8 (de(thio)acetylation of peptides); type: biochemical; set-up: key to HDAC8 (sensitive / resistant to HDAC8): +: Sensitive to HDAC8; —: Resistant to HDAC8; conditions: enzymatic dethioacetylation by HDAC8
Procedure: To test the foregoing premise, peptides 1b, 2, and 3a were allowed to be incubated for 2 hours at room temperature in the HDAC8 assay buffer in a HPLC-based HDAC8 assay. […] FIG. 5 provides representative HPLC chromatograms from HDAC8 assays with peptides 1b, 2, and 3a. All assays were performed in duplicate and essentially the same HPLC chromatograms were obtained for the duplicates. The small peak with tR˜27 minutes in the second chromatogram was from a minor impurity in the purified peptide 2 sample, rather than the dethioacetylated product. The lack of detectable dethioacetylation of peptide 3a was apparent from the absence of a peak with tR˜34 minutes, shown for peptide 3c in the third chromatogram.
Assay with purified HDAC8. The purified HDAC8 could be obtained from a commercial source for use with a HPLC-based HDAC8 assay. In brief, a HDAC8 assay solution had the following components: 25 mM Tris.HCl (pH 8.0), 137 mM NaCl, 2.7 mM KCl, 1 mM MgCl2, 1 mg/mL BSA (SIGMA Cat. #A3803 with reduced fatty acid content), 0.3 mM peptide 1b, 2, or 3a, and 1.5 μM HDAC8. […] An enzymatic reaction was initiated by the addition of HDAC8 at room temperature and was allowed to be incubated at room temperature for 2 hours before being quenched with the following stop solution: 1.0 M HCl and 0.16 M acetic acid. The quenched assay solutions were directly injected into a reversed-phase HPLC C18 column (100 Å, 0.46×25 cm), eluting with the following gradients of ddH2O containing 0.05% (v/v) trifluoroacetic acid (mobile phase A) and acetonitrile containing 0.05% (v/v) trifluoroacetic acid (mobile phase B): linear increase from 0% B to 35% B (for the assay with peptide 2 or 1b) or 40% B (for the assay with peptide 3a or […]) from 0-40 minutes (1 mL/min), and UV monitoring at 214 nm. […] The enzymatically formed peptide 1c was confirmed by its comigration with the chemically synthesized authentic sample and by MALDI-TOF mass spectrometric analysis, and was quantified by HPLC peak integration and comparison with that of synthetic authentic sample.

SIRT2 = molecular target: T4, SIRT2 (Homo sapiens, UniProt Q8IXJ6); assay: HPLC-based SIRT2 inhibition assay with purified SIRT2; type: biochemical; conditions: SIRT2 vs SIRT1
T4 construct: purchased
T4 sequence (Q8IXJ6 1-389): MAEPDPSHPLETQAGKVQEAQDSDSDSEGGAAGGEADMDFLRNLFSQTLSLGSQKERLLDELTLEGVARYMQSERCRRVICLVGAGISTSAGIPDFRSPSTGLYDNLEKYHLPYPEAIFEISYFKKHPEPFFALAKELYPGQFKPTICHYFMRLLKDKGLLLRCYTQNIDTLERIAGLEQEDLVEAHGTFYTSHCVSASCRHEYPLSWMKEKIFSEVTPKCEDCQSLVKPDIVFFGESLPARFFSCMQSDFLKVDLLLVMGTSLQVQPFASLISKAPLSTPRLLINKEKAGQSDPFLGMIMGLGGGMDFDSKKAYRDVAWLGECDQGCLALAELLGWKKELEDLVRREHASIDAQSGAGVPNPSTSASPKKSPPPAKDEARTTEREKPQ
Procedure: as §1

SMILES: CC(=S)NCCCC[C@H](NC(=O)OCC1c2ccccc2-c2ccccc21)C(=O)O [N^α-Fmoc-N^ε-thioacetyl-lysine, L-N^α-Fmoc-N^ε-thioacetyl-lysine]
IC25 for SIRT1 (SIRT1; concentration to achieve 25% inhibition): 2,000 uM | IC25 SIRT1 (SIRT1; concentration to achieve 25% inhibition, 0.5 mM β-NAD+, 0.3 mM peptide substrate): 2,000 (IC25) μM

SMILES: CC(=O)N[C@@H](CCCCNC(C)=S)C(=O)O [N^α-acetyl-N^ε-thioacetyl-lysine, L-N^α-acetyl-N^ε-thioacetyl-lysine]
SIRT1 inhibition at 2 mM (SIRT1): No inhibition | SIRT1 inhibition at 2 mM (SIRT1; listed as L-N^α-acetyl-N^ε-thioacetyl-lysine): did not exhibit any SIRT1 inhibition

SMILES: CSCC[C@H](NC(=O)[C@H](CC(C)C)NC(=O)[C@H](CCCCNC(C)=S)NC(=O)[C@H](CCCCN)NC(=O)[C@H](Cc1c[nH]cn1)NC(=O)[C@H](CCCNC(=N)N)NC(=O)[C@H](CO)NC(=O)[C@@H](NC(=O)[C@H](CO)NC(=O)[C@H](CCC(N)=O)NC(=O)CNC(=O)[C@H](CCCCN)NC(=O)[C@@H](N)CCCCN)[C@@H](C)O)C(=O)N[C@@H](Cc1ccccc1)C(=O)N[C@@H](CCCCN)C(=O)N[C@H](C(=O)N[C@@H](CCC(=O)O)C(=O)NCC(=O)O)[C@@H](C)O [Peptide 1a]
inhibition potency weaker against SIRT3 than against SIRT1 (SIRT3): approximately 35 fold | formation of dethioacetylated peptide under sirtuin inhibition assay conditions (SIRT1, SIRT2, and SIRT3): did not give rise to detectable formation | de(thio)acetylation by HDAC8 (previously demonstrated) (HDAC8 [1]): comparably de(thio)acetylated by HDAC8 | HDAC8 (sensitive / resistant to HDAC8) (HDAC8 [2]): +^c | inhibition potency against SIRT2 relative to that against SIRT1 (SIRT2): comparable inhibition potency

More lines, now with the values ahead:

decrease in SIRT1 inhibition potency following truncation of peptide 1a (SIRT1; vs peptide 1a): approximately 6 fold
SMILES: CSCC[C@H](NC(=O)[C@H](CC(C)C)NC(=O)[C@H](CCCCNC(C)=S)NC(=O)[C@H](CCCCN)NC(=O)[C@@H](N)Cc1c[nH]cn1)C(=O)O [Peptide 4] (H-HK[Lys(Thioacetyl)]LM-OH)

IC50 (SIRT1): 10.4 ± 0.3 µM
SMILES: CSCC[C@H](NC(=O)[C@H](CC(C)C)NC(=O)[C@H](CCCCNC(C)=S)NC(=O)[C@H](CCCCN)NC(=O)[C@@H](N)Cc1cnc[nH]1)C(=O)O [Peptide 4] (H-HK[Lys(Thioacetyl)]LM-OH)
